Source: the supplement of paper PMC10307832

compound: O=c1ncccn1[C@@H]1O[C@H](CO)[C@@H](O)[C@H]1O [Zebularine] + COc1cccc2cc(-c3nc([C@H]4CC[C@H](C(=O)O)CC4)n4ncnc(N)c34)[nH]c12 [OSI-027] (partner 0.5 µM); experiment: relative viability (nuclei count vs DMSO), 5 days (fraction); higher = more cells survive; settings: first compound 100 µM
Procedure, shortened: (§1)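 For relative viability, nuclei counts in treated wells were divided by those in vehicle wells. Lung cancer cell lines had been pin-tool dosed in 1536-well plates the day after seeding and cultured for 5 days, then fixed and stained in one step (final 0.05% Triton X-100, 1% formaldehyde, 1 ug/ml Hoechst) and imaged at 4×. Doses were one drug alone or a fixed anchor-drug dose plus five library-drug doses (not always all listed) in √10 steps, and values are duplicate-plate medians.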

Cell Line	relative viability
NCI-H522	0.707
SW 900	0.427
NCI-H441	0.234
NCI-H1395	0.429
NCI-H1793	0.221

compound: CC(C)CCN1c2nc(Nc3cc(F)c(O)c(F)c3)ncc2N(C)C(=O)C1C [BI-D1870] + C[C@@H](Oc1cc(-c2cnn(C3CCNCC3)c2)cnc1N)c1c(Cl)ccc(F)c1Cl [Crizotinib] (partner 1 µM); experiment: as above; settings: first compound 0.04 µM
Procedure, shortened: as §1

Cell Line	relative viability
NCI-H727	0.986
NCI-H1650	0.984
EBC-1	0.16
NCI-H1703	1.16
NCI-H1993	0.891
SW 1573	1.01
NCI-H838	0.902
LCLC-103H	1.18
NCI-H520	1.05
NCI-H2126	1.09
EMC-BAC-2	0.847
NCI-H2085	0.861
Calu-6	0.883
HCC-366	0.694
NCI-H1666	0.932
NCI-H596	0.97

Cell Line	relative viability
LK-2	0.187
NCI-H2087	0.918
SK-MES-1	1.09
H3255	0.831
COR-L23	0.703
COR-L 105	0.858
IA-LM	1.19
LOU-NH91	0.8
ChaGo-K-1	1.19
NCI-H2170	1.31
NCI-H2405	0.952
HOP-62	1.08
HCC-44	0.921
A549	0.873
NCI-H441	1.01
NCI-H1299	0.971

same assay, conditions: first compound 0.1265 µM

Cell Line	relative viability
NCI-H727	0.672
NCI-H1650	0.905
EBC-1	0.182
NCI-H1703	0.613
NCI-H1993	0.842
SW 1573	0.808
NCI-H838	0.715
LCLC-103H	0.889
NCI-H520	0.687
NCI-H2126	1.07
EMC-BAC-2	0.739
NCI-H2085	0.561
Calu-6	0.741
HCC-366	0.485
NCI-H1666	0.813
NCI-H596	0.982

Cell Line	relative viability
LK-2	0.233
NCI-H2087	0.914
SK-MES-1	0.88
H3255	0.924
COR-L23	0.639
COR-L 105	0.79
IA-LM	0.942
LOU-NH91	0.702
ChaGo-K-1	1.09
NCI-H2170	1.06
NCI-H2405	0.863
HOP-62	0.986
HCC-44	0.798
A549	0.708
NCI-H441	0.696
NCI-H1299	0.902

same assay, conditions: first compound 0.4 µM

Cell Line	relative viability
NCI-H727	0.938
NCI-H1650	0.936
EBC-1	0.209
NCI-H1703	0.467
NCI-H1993	0.801
SW 1573	0.876
NCI-H838	0.926
LCLC-103H	0.868
NCI-H520	0.766
NCI-H2126	0.994
EMC-BAC-2	0.726
NCI-H2085	0.819
Calu-6	0.886
HCC-366	0.471
NCI-H1666	1.1
NCI-H596	0.981

Cell Line	relative viability
LK-2	0.232
NCI-H2087	1
SK-MES-1	0.864
H3255	0.862
COR-L23	0.692
COR-L 105	0.777
IA-LM	0.845
LOU-NH91	0.735
ChaGo-K-1	1.08
NCI-H2170	1.24
NCI-H2405	0.836
HOP-62	0.963
HCC-44	0.771
A549	0.76
NCI-H441	0.925
NCI-H1299	0.965

same assay, conditions: first compound 1.265 µM

Cell Line	relative viability
NCI-H727	0.922
NCI-H1650	0.777
EBC-1	0.188
NCI-H1703	0.756
NCI-H1993	0.916
SW 1573	0.905
NCI-H838	0.949
LCLC-103H	1.1
NCI-H520	0.824
NCI-H2126	1.04
EMC-BAC-2	0.853
NCI-H2085	0.724
Calu-6	0.597
HCC-366	0.933
NCI-H1666	1.04
NCI-H596	1.01

Cell Line	relative viability
LK-2	0.274
NCI-H2087	1.11
SK-MES-1	0.78
H3255	0.987
COR-L23	0.72
COR-L 105	0.754
IA-LM	0.569
LOU-NH91	0.75
ChaGo-K-1	1.06
NCI-H2170	1.24
NCI-H2405	0.94
HOP-62	1.01
HCC-44	0.851
A549	0.618
NCI-H441	0.738
NCI-H1299	0.885

same assay, conditions: first compound 4 µM

Cell Line	relative viability
NCI-H727	0.853
NCI-H1650	0.801
EBC-1	0.134
NCI-H1703	0.356
NCI-H1993	0.73
SW 1573	0.597
NCI-H838	0.932
LCLC-103H	1.03
NCI-H520	0.476
NCI-H2126	1.01
EMC-BAC-2	0.835
NCI-H2085	0.772
Calu-6	0.629
HCC-366	0.378
NCI-H1666	0.803
NCI-H596	1.16
LK-2	0.264
NCI-H2087	0.739
SK-MES-1	0.569
H3255	0.981
COR-L23	0.544
COR-L 105	0.574
IA-LM	0.176
LOU-NH91	0.647
ChaGo-K-1	0.994
